Assay results: ChEMBL document CHEMBL1149622, “Synthesis, resolution, stereochemistry, and molecular modeling of (R)- and (S)-2-acetyl-1-(4'-chlorophenyl)-6,7-dimethoxy-1,2,3,4-tetrahydroisoquinoline AMPAR antagonists” (2007)

Assays:
Mus musculus [1] = species on record: Mus musculus; assay: Anticonvulsant activity against audiogenic clonus seizures in DBA/2 mouse after 30 mins; format: functional; conditions: DBA/2, 0.5 h
Mus musculus [2] = species on record: Mus musculus; assay: Anticonvulsant activity against audiogenic tonus seizures in DBA/2 mouse after 30 mins; format: functional; conditions: DBA/2, 0.5 h

Compound	ED50 (Mus musculus [1])	ED50 (Mus musculus [2])
COc1cc2c(cc1OC)[C@@H](c1ccc(Cl)cc1)N(C(C)=O)CC2	4.1 µmol/kg	2.05 µmol/kg
COc1cc2c(cc1OC)[C@H](c1ccc(Cl)cc1)N(C(C)=O)CC2	22.4 µmol/kg	11.2 µmol/kg
COc1cc2c(cc1OC)C(c1ccc(Cl)cc1)N(C(C)=O)CC2 (racemic)	6.51 µmol/kg	3.53 µmol/kg
